Patent US20220000840A1, “PHARMACEUTICAL COMPOSITION AND PREPARATION METHOD THEREFOR” (priority 2015, published 2022)

Tests used:
[1] = Solubility and chemical stability of NL-101 drug substance; type: physicochemical
[2] = lyophilized powder for injection of CN103826630A Example 2, at −20° C., 4° C. and room temperature, as claimed in CN103826630A; cited from earlier work
[3] = intravenous injection of prior-art injection (NL-101 dissolved with acetic acid, diluted with water for injection), animal; cited from earlier work
[4] = Stability of NL-101 reconstituted solution (5 mg/mL) at room temperature (25±2°C); type: physicochemical; conditions: CN103826630A Example 2 lyophilized preparation
From the text: In the process of investigating the NL-101 lyophilized preparation, the inventors unexpectedly discovered that reconstitution of the NL-101 lyophilized preparation with different solvents has a great influence on the stability of NL-101. For example, the lyophilized preparation prepared in Example 2 of CN103826630A was reconstituted with water for injection and physiological saline, respectively, and the purity of NL-101 in the reconstituted solution was examined at different time points.
Since the NL-101 lyophilized powder for injection prepared in Example 2 of CN103826630A contains sodium ions, it is speculated that the stability of NL-101 is increased by chlorine ions in sodium chloride. In order to confirm this, we conducted a stability investigation by reconstituting the lyophilized preparation prepared in Example 2 of CN103826630A in a potassium chloride solution having the same molar concentration as physiological saline.

[5] = Stability of NL-101 intermediate/diluted solution (before lyophilization) at room temperature (25±2°C), HPLC; type: physicochemical; conditions: for Purity: intermediate solution per Example 2 of CN103826630A, room temperature (25 ± 2° C.)
Procedure: (§1) Northlake Biosciences LLC submitted an application WO2013010286A2 on Sep. 14, 2012, and its Chinese family patent is CN103826630A. Chinese family patent application CN103826630A uses acetic acid to dissolve NL-101 and use cyclodextrin inclusion technology to prepare lyophilized powder for injection to improve the safety of NL-101. However, the prepared NL-101 lyophilized powder for injection, such as Example 2, although claimed to be chemically stable at −20° C., 4° C. and room temperature for at least 2 weeks, in fact, the inventors of the present application have verified that the results are still far from satisfying the clinical application requirements of drugs. Although it can be stable for 2-3 weeks at −20° C. and 4° C., it is only stable for several days at room temperature. […] Especially when placed only 5 days in the condition of high temperature accelerated test at 40° C., more than 15% of NL-101 was degraded. The specific stability test results are shown in Table 1, Table 2, and Table 3 below.
The diluted solutions prepared according to the formulations 1-15, 1-1, 2-1, 3-1 and according to Example 2 of CN103826630A were left to stand for 2 hours at room temperature (25±2° C.) and the stability of each diluted solution was tested by high performance liquid chromatography.
The diluted solutions prepared according to the formulations 16-29 and according to Example 2 of CN103826630A were left to stand for 2 hours at room temperature (25±2° C.) and the stability of each diluted solution was tested by high performance liquid chromatography.
Three batches of diluted solutions were taken and placed at room temperature (25±2° C.) for different periods of time. The stability of each diluted solution was tested by high performance liquid chromatography.

[6] = Storage stability of NL-101 lyophilized preparation (room temperature, 4°C, -20°C); type: physicochemical; conditions: for time stable: verified by the inventors; for Purity: lyophilized preparation per Example 2 of CN103826630A, room temperature (25 ± 2° C.)
Procedure: as §1
According to the accelerated test results at 40° C., it is presumed that under the condition of storage, transportation and sales at room temperature (25±2° C.), it can remain stable for at least 2 years and fully meet the needs of clinical use.

[7] = Accelerated test of NL-101 lyophilized preparation at 40°C, HPLC / HPLC-MS; type: physicochemical; conditions: for Purity: lyophilized preparation per Example 2 of CN103826630A, accelerated test at 40° C.
Procedure: as §1
The NL-101 lyophilized preparation for injection prepared according to the formulation 4 was taken and subjected to an accelerated test at 40° C., and the stability was tested by high performance liquid chromatography.
The NL-101 lyophilized preparation for injection prepared according to the formulations 16 and 22 were taken and subjected to an accelerated test at 40° C., and the accelerated test samples were test by high performance liquid chromatography in connection with mass spectrometry.
The above three batches of lyophilized powder for injection were taken and subjected to accelerated experiments at 40° C. The contents and total impurities were measured at 0, 1, 3, and 6 months, respectively.

Cn1c(CCCCCCC(=O)NO)nc2cc(N(CCCl)CCCl)ccc21 [NL-101, 7-[5-[bis(chloroethyl)-amino]-1-methylbenzimidazol-2-yl]-N-hydroxyl-heptamide]
solubility ([1]; in acetic acid): easily soluble | stability ([1]; in aqueous solution): unstable | stability ([1]; in case of strong acid, strong alkali, strong oxidant and light): easily degraded | solubility ([1]; in ethanol): very slightly soluble | solubility ([1]; in methanol): slightly soluble | stability ([1]; in methanol and acetic acid solution): relatively stable | solubility ([1]; in water): insoluble | time claimed to be chemically stable [2]: at least 2 weeks | mortality rate [3]: high | toxicity [3]: highly toxic | vascular irritation [3]: large | purity of NL-101 reconstituted with potassium chloride injection ([4]; 0 h): 91.28% | purity of NL-101 reconstituted with sodium chloride injection ([4]; 0 h): 91.88% | purity of NL-101 reconstituted with water for injection ([4]; 0 h): 90.23% | purity of NL-101 reconstituted with potassium chloride injection ([4]; 2 h): 86.25% | purity of NL-101 reconstituted with sodium chloride injection ([4]; 2 h): 87.05% | purity of NL-101 reconstituted with water for injection ([4]; 2 h): 80.06% | purity of NL-101 reconstituted with potassium chloride injection ([4]; 4 h): 81.93% | purity of NL-101 reconstituted with sodium chloride injection ([4]; 4 h): 80.23% | purity of NL-101 reconstituted with water for injection ([4]; 4 h): 71.08% | purity of NL-101 reconstituted with potassium chloride injection ([4]; 6 h): 83.56% | purity of NL-101 reconstituted with sodium chloride injection ([4]; 6 h): 78.33% | purity of NL-101 reconstituted with water for injection ([4]; 6 h): 59.36% | NL-101 degraded ([5]; intermediate solution before lyophilization per Example 2 of CN103826630A, in the dark at room temperature for 4 hours): more than 15% | Purity ([5]; 0 h): 94.05% | Purity ([5]; 2 h): 88.06% | Purity ([5]; 4 h): 78.22% | time stable ([6]; lyophilized powder for injection of CN103826630A Example 2, at room temperature): several days | time stable ([6]; lyophilized powder for injection of CN103826630A Example 2, at −20° C. and 4° C.): 2-3 weeks | degradation of NL-101 ([6]; lyophilized powder for injection of CN103826630A Example 2, room temperature for 1 month): degraded severely | Purity ([6]; day 0): 90.23% | Purity ([6]; day 5): 85.16% | Purity ([6]; day 15): 77.31% | Purity ([6]; day 30): 70.55% | NL-101 degraded ([7]; lyophilized powder for injection of CN103826630A Example 2, 5 days in accelerated test at 40° C.): more than 15% | Purity ([7]; day 0): 90.23% | Purity ([7]; day 5): 72.31%
